According to article PMC8558867, “Development of BromoTag: A “Bump-and-Hole”–PROTAC System to Induce Potent, Rapid, and Selective Degradation of Tagged Target Proteins” (Journal of Medicinal Chemistry, 2021):
Read-outs that look alike come from different tables or passages of the source.

Experiments:
BromoTag-Brd2 = experiment: Dose–response degradation assay (western blot, 6 h) in heterozygous BromoTag-Brd2 HEK293 cells; format: cell-based, human; settings: for DC50 / Dmax of BromoTag-Brd2 degradation / hook effect: 6 h; for DC50: read-out: DC50 of BromoTag-Brd2 degradation; for Dmax (%) (Ab: Brd2) / Dmax (%) (Ab: Brd4^BD2 L387A) / pDC50 (Ab: Brd2) / pDC50 (Ab: Brd4^BD2 L387A): BromoTagged-Brd2, 6 h; for pDC50 (Ab: Brd2) / pDC50 (Ab: Brd4^BD2 L387A): mean ±S.E of three independent experiments; for hook effect: higher concentrations of 1–10 μM; for pDmax (%) (Ab: Brd4BD2 L387A) / pDmax (%) (Ab:Brd2): supplementary CSV
Description: All dose–response degradation assays were performed on the genotype-verified heterozygous BromoTag-Brd2 HEK293 cell line. Heterozygous BromoTag-Brd2 HEK293 cells were plated at a density of 5 × 10^5 cells per well of a six-well healthy plate a day before initiation of the titration experiment. PROTAC compounds were dissolved in DMSO at a concentration of 10 mM; from these stock concentrations, PROTAC compounds were diluted to appropriate concentrations using DMSO in the range of 10 μM to 1 nM. […] Control compounds such as MZ1 and cis-MZ1 were similarly dissolved in DMSO to an appropriate concentration. […] The cells were washed twice with PBS before being harvested.
The membranes were blocked for 1 h prior to incubation with the primary antibodies using 5% Milk TBST. […] Following overnight incubation with the primary antibodies at 4 °C, the membranes were incubated with secondary antibodies (anti-rabbit, Abcam AB216773, 1:5000 or anti-mouse, Abcam AB216774, 1:5000) and hFABTM rhodamine anti-tubulin antibody (Biorad, 12004165, 1:10,000) for 1 h and then imaged with a Bio-Rad imager (LI-COR Biosciences). All western blots were analyzed for band intensities using Image Lab from Bio-Rad (LI-COR, Biosciences). The data extracted from these blots were then plotted and analyzed using Prism (v. 8.2.0, GraphPad).

[1] = tested on: untagged Brd2, Brd3, Brd4; experiment: Off-target degradation of endogenous BET proteins (western blot) in heterozygous BromoTag-Brd2 HEK293 cells; format: cell-based, human
From the text: To establish the BromoTag platform and support the degrader structure–activity relationships (SARs) to identify the best compound, we sought a practical and simple system that enables us to best optimize not only the degradation efficiency but also the selectivity profile of our degraders. To this end, the endogenous BET family protein Brd2 was chosen as a model target due to the availability of a well-established antibody for Brd2 detection, and the expression of a single protein isoform detected as a single band in the western blot.[24] Because Brd2 contains endogenous bromodomains and is degraded by 1 and other BET PROTACs, we reasoned that a heterozygous knock-in cell line allows us to monitor simultaneously both on-target degradation (BromoTagged-Brd2) and off-target degradation (untagged Brd2) using the same antibody. Together with the potential off-target degradation of the other BET proteins Brd3 and Brd4, this system thus enables us to best monitor protein degradation selectivity. We therefore decided to add the BromoTag at the N-terminus of the endogenous Brd2 gene locus using CRISPR knock-in methodologies, thereby yielding a chimeric protein bearing three bromodomains (the exogenous BromoTag, in addition to the endogenous Brd2^BD1 and Brd2^BD2). Hereafter, we refer to on-target activity as the degradation of BromoTag-Brd2 and off-target activity as any degradation of either untagged Brd2 or endogenous Brd3 or Brd4.
All dose–response degradation assays were performed on the genotype-verified heterozygous BromoTag-Brd2 HEK293 cell line. Heterozygous BromoTag-Brd2 HEK293 cells were plated at a density of 5 × 10^5 cells per well of a six-well healthy plate a day before initiation of the titration experiment. PROTAC compounds were dissolved in DMSO at a concentration of 10 mM; from these stock concentrations, PROTAC compounds were diluted to appropriate concentrations using DMSO in the range of 10 μM to 1 nM. The compounds were then added to 2 mL of DMEM (Invitrogen, Carlsbad, CA, USA) supplemented with 10% (v/v) FBS (Thermo Fisher, Waltham, MA, USA) and 1% (v/v) penicillin/streptomycin (pen/strep) (#15140122, Thermo Fisher, Waltham, MA, USA) and added to the cells while initiating the experiment. Control compounds such as MZ1 and cis-MZ1 were similarly dissolved in DMSO to an appropriate concentration. All titration experiments were performed for a total of 6 h prior to being harvested and were kept at 37 °C, 5% CO2, and 95% humidity once treatment was applied until right before harvesting. The cells were washed twice with PBS before being harvested.
All cells were harvested on ice with RIPA lysis and extraction buffer (Thermo Fisher Scientific, 89901) supplemented with protease inhibitor cocktail (Merck, 11697498001) and Benzonase Nuclease (Sigma, E1014) before being stored at −20 °C prior to use. Total protein quantity was determined using the BCA protein assay (#23225, Pierce, Rockford, Illinois). The protein concentration was determined using the BCA assay (Thermo Fisher Scientific, 23225). The samples were then prepared and loaded onto NuPAGE 4–12% bis–tris Midi gels (Thermo Fisher Scientific, WG1403A), followed by the transfer of proteins onto nitrocellulose membranes (EMD Millipore). The membranes were blocked for 1 h prior to incubation with the primary antibodies using 5% Milk TBST. The membranes were probed for Brd2 (Abcam, Ab139690, 1:1000), Brd3 (Abcam, Ab50818, 1:4000), Brd4 (Abcam, Ab128874, 1:1000), or our polyclonal Brd4^BD2 L387A antibody. Following overnight incubation with the primary antibodies at 4 °C, the membranes were incubated with secondary antibodies (anti-rabbit, Abcam AB216773, 1:5000 or anti-mouse, Abcam AB216774, 1:5000) and hFABTM rhodamine anti-tubulin antibody (Biorad, 12004165, 1:10,000) for 1 h and then imaged with a Bio-Rad imager (LI-COR Biosciences). All western blots were analyzed for band intensities using Image Lab from Bio-Rad (LI-COR, Biosciences). […]

[2] = diastereomeric mixtures, range over the two antibodies
[3] = 1 nM to 10 μM, 6 h, diastereomeric mixtures

SMILES	DC50 (BromoTag-Brd2; diastereomeric mixture)	Dmax of BromoTag-Brd2 degradation (BromoTag-Brd2; diastereomeric mixtures)	Dmax (%) (Ab: Brd2) (BromoTag-Brd2; diastereomeric mixtures)	Dmax (%) (Ab: Brd4^BD2 L387A) (BromoTag-Brd2; diastereomeric mixtures)	pDC50 (Ab: Brd2) (BromoTag-Brd2; diastereomeric mixtures)	pDC50 (Ab: Brd4^BD2 L387A) (BromoTag-Brd2; diastereomeric mixtures)	hook effect (BromoTag-Brd2; diastereomeric mixtures)	pDmax (%) (Ab: Brd4BD2 L387A) (BromoTag-Brd2)	pDmax (%) (Ab:Brd2) (BromoTag-Brd2)	off-target degradation of untagged Brd2 or the other endogenous BET proteins [1]	DC50 (BromoTag-Brd2; [2])	off-target degradation of untagged Brd2 or the other endogenous BET proteins [1, 3]
CCC(C(=O)NCCOCCCOCC(=O)N[C@H](C(=O)N1C[C@H](O)C[C@H]1C(=O)N[C@@H](C)c1ccc(-c2scnc2C)cc1)C(C)(C)C)C1N=C(c2ccc(Cl)cc2)c2c(sc(C)c2C)-n2c(C)nnc21 (relative stereo) [ET-ARV-771 (21), (2S,4R)-1-((2S,15R*)-2-(tert-Butyl)-15-((S*)-4-(4-chlorophenyl)-2,3,9-trimethyl-6H-thieno[3,2-f][1,2,4]triazolo[4,3-a][1,4]diazepin-6-yl)-4,14-dioxo-6,10-dioxa-3,13-diazaheptadecanoyl)-4-hydroxy-N-((S)-1-(4-(4-methylthiazol-5-yl)phenyl)ethyl)pyrrolidine-2-carboxamide]	~1000 nM	< 70%	51%	69%	5.7 ± 1.8	6.1 ± 0.3	strong hook effect	69%	51%			
CCC(C(=O)NCCOCCOCCOCC(=O)N[C@H](C(=O)N1C[C@H](O)C[C@H]1C(=O)NCc1ccc(-c2scnc2C)cc1)C(C)(C)C)C1N=C(c2ccc(Cl)cc2)c2c(sc(C)c2C)-n2c(C)nnc21 (relative stereo) [ET-MZ1 (19), (2S,4R)-1-((2S,17R*)-2-(tert-Butyl)-17-((S*)-4-(4-chlorophenyl)-2,3,9-trimethyl-6H-thieno[3,2-f][1,2,4]triazolo[4,3-a][1,4]diazepin-6-yl)-4,16-dioxo-6,9,12-trioxa-3,15-diazanonadecanoyl)-4-hydroxy-N-(4-(4-methylthiazol-5-yl)benzyl)pyrrolidine-2-carboxamide]					6.5 ± 0.2	6.6 ± 0.6	no hook effect			no observable off-target degradation	250 to 360 nM	
CC[C@@H](C(=O)OCCOCCCOCC(=O)N[C@H](C(=O)N1C[C@H](O)C[C@H]1C(=O)N[C@@H](C)c1ccc(-c2scnc2C)cc1)C(C)(C)C)[C@@H]1N=C(c2ccc(Cl)cc2)c2c(sc(C)c2C)-n2c(C)nnc21 (relative stereo) [ET-OARV-771 (25), 2-(3-(2-(((S)-1-((2S,4R)-4-Hydroxy-2-(((S)-1-(4-(4-methylthiazol-5-yl)phenyl)ethyl)carbamoyl)pyrrolidin-1-yl)-3,3-dimethyl-1-oxobutan-2-yl)amino)-2-oxoethoxy)propoxy)ethyl (R*)-2-((S*)-4-(4-chlorophenyl)-2,3,9-trimethyl-6H-thieno[3,2-f][1,2,4]triazolo[4,3-a][1,4]diazepin-6-yl)butanoate]		> 75%					strong onset of the hook effect			minor off-target degradation of Brd3	13 to 16 nM	
CCC(C(=O)OCCOCCOCCOCC(=O)N[C@H](C(=O)N1C[C@H](O)C[C@H]1C(=O)NCc1ccc(-c2scnc2C)cc1)C(C)(C)C)C1N=C(c2ccc(Cl)cc2)c2c(sc(C)c2C)-n2c(C)nnc21 (relative stereo) [ET-OMZ1 (23), (S)-13-((2S,4R)-4-Hydroxy-2-((4-(4-methylthiazol-5-yl)benzyl)carbamoyl)pyrrolidine-1-carbonyl)-14,14-dimethyl-11-oxo-3,6,9-trioxa-12-azapentadecyl (R*)-2-((S*)-4-(4-chlorophenyl)-2,3,9-trimethyl-6H-thieno[3,2-f][1,2,4]triazolo[4,3-a][1,4]diazepin-6-yl)butanoate]		> 75%			7.9 ± 0.2	7.1	strong onset of the hook effect			no observable off-target degradation	13 to 80 nM	
Cc1ncsc1-c1ccc([C@H](C)NC(=O)[C@@H]2C[C@@H](O)CN2C(=O)[C@@H](NC(=O)COCCCOCCNC(=O)C(C)C2N=C(c3ccc(Cl)cc3)c3c(sc(C)c3C)-n3c(C)nnc32)C(C)(C)C)cc1 (relative stereo) [ME-ARV-771 (20), (2S,4R)-1-((2S,15R*)-2-(tert-Butyl)-15-((S*)-4-(4-chlorophenyl)-2,3,9-trimethyl-6H-thieno[3,2-f][1,2,4]triazolo[4,3-a][1,4]diazepin-6-yl)-4,14-dioxo-6,10-dioxa-3,13-diazahexadecanoyl)-4-hydroxy-N-((S)-1-(4-(4-methylthiazol-5-yl)phenyl)ethyl)pyrrolidine-2-carboxamide]			60%	70%	6.4 ± 0.6	6.5 ± 0.4		70%	60%			induced undesired off-target degradation
Cc1ncsc1-c1ccc(CNC(=O)[C@@H]2C[C@@H](O)CN2C(=O)[C@@H](NC(=O)COCCOCCOCCNC(=O)C(C)C2N=C(c3ccc(Cl)cc3)c3c(sc(C)c3C)-n3c(C)nnc32)C(C)(C)C)cc1 (relative stereo) [ME-MZ1 (18), (2S,4R)-1-((2S,17R*)-2-(tert-Butyl)-17-((S*)-4-(4-chlorophenyl)-2,3,9-trimethyl-6H-thieno[3,2-f][1,2,4]triazolo[4,3-a][1,4]diazepin-6-yl)-4,16-dioxo-6,9,12-trioxa-3,15-diazaoctadecanoyl)-4-hydroxy-N-(4-(4-methylthiazol-5-yl)benzyl)pyrrolidine-2-carboxamide]								90%	92%			induced undesired off-target degradation
Cc1ncsc1-c1ccc([C@H](C)NC(=O)[C@@H]2C[C@@H](O)CN2C(=O)[C@@H](NC(=O)COCCCOCCOC(=O)C(C)C2N=C(c3ccc(Cl)cc3)c3c(sc(C)c3C)-n3c(C)nnc32)C(C)(C)C)cc1 (relative stereo) [ME-OARV-771 (24), 2-(3-(2-(((S)-1-((2S,4R)-4-Hydroxy-2-(((S)-1-(4-(4-methylthiazol-5-yl)phenyl)ethyl)carbamoyl)pyrrolidin-1-yl)-3,3-dimethyl-1-oxobutan-2-yl)amino)-2-oxoethoxy)propoxy)ethyl (R*)-2-((S*)-4-(4-chlorophenyl)-2,3,9-trimethyl-6H-thieno[3,2-f][1,2,4]triazolo[4,3-a][1,4]diazepin-6-yl)propanoate]								91%	91%			induced undesired off-target degradation
Cc1ncsc1-c1ccc(CNC(=O)[C@@H]2C[C@@H](O)CN2C(=O)[C@@H](NC(=O)COCCOCCOCCOC(=O)[C@H](C)[C@@H]2N=C(c3ccc(Cl)cc3)c3c(sc(C)c3C)-n3c(C)nnc32)C(C)(C)C)cc1 (relative stereo) [ME-OMZ1 (22), (S)-13-((2S,4R)-4-Hydroxy-2-((4-(4-methylthiazol-5-yl)benzyl)carbamoyl)pyrrolidine-1-carbonyl)-14,14-dimethyl-11-oxo-3,6,9-trioxa-12-azapentadecyl (R*)-2-((S*)-4-(4-chlorophenyl)-2,3,9-trimethyl-6H-thieno[3,2-f][1,2,4]triazolo[4,3-a][1,4]diazepin-6-yl)propanoate]								94%	96%			induced undesired off-target degradation
